From ChEMBL document CHEMBL1138766, “Synthesis and biological evaluation of new acinetoferrin homologues for use as iron transport probes in mycobacteria” (2004)

The molecules below were run on Mycobacterium avium (assay: Growth index for Mycobacterium avium sub species paratuberculosis was measured relative to mycobactin J).
Assay type: functional

Row | Structure (SMILES) | Growth Index
1 | CCCCC/C=C/C(=O)N(O)CCCCCCNC(=O)CC1(O)CC(=O)N(CCCCCCN(O)C(=O)/C=C/CCCCC)C1=O (stereo unspecified) | 1.01
2 | CCCCCCCCCCCCC/C=C/C(=O)N(O)CCCC[C@H](NC(=O)[C@@H]1CCC(c2ccccc2O)=N1)C(=O)OC(C(C)C)C(C)C(=O)N[C@H]1CCCCN(O)C1=O (stereo partly specified) | 1
3 | CCCCC/C=C/C(=O)N(O)CCCCCNC(=O)CC1(O)CC(=O)N(CCCCCN(O)C(=O)/C=C/CCCCC)C1=O (stereo unspecified) | 1.17
4 | CCCCC/C=C/C(=O)N(O)CCCCCNC(=O)CC(O)(CC(=O)NCCCCCN(O)C(=O)/C=C/CCCCC)C(=O)O | 0.96
5 | CCCCC/C=C/C(=O)N(O)CCCCCCNC(=O)CC(O)(CC(=O)NCCCCCCN(O)C(=O)/C=C/CCCCC)C(=O)O | 0.95
6 | CC(=O)N(O)CCCCCNC(=O)CCC(=O)N(O)CCCCCNC(=O)CCC(=O)N(O)CCCCCN [DEFEROXAMINE] | 1.09
